Columns and labels:
Procathepsin L [1] = molecular target: T1, Procathepsin L (Homo sapiens, UniProt P07711); experiment: Inhibition of human recombinant cathepsin L using Z-LR-AMC as substrate by fluorescence assay
Cathepsin S [2] = molecular target: T2, Cathepsin S (Homo sapiens, UniProt P25774); experiment: Inhibition of human recombinant cathepsin S using Ac-KQLR-AMC as substrate by fluorescence assay
Cathepsin K [3] = molecular target: T3, Cathepsin K (Homo sapiens, UniProt P43235); experiment: Inhibition of human recombinant cathepsin K using z-LR-AFC as substrate by fluorescence assay
T3 sequence (P43235 whole entry): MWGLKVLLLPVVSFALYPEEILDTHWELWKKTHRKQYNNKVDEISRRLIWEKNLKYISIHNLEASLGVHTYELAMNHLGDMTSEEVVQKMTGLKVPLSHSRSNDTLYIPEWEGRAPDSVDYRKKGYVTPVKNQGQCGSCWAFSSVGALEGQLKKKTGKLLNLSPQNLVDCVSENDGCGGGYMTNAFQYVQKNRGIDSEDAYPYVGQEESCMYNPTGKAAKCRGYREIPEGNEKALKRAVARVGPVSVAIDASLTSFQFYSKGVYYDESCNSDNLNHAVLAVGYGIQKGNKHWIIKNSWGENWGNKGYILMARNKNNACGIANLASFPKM

Cathepsin S [4] = molecular target: T2, Cathepsin S; experiment: Inhibition of cathepsin S in human Raji cells assessed as decrease in cell surface expression of MHC class 2/CLIP by flow cytometric analysis; type: cell-based
Cathepsin K [5] = molecular target: T3, Cathepsin K; experiment: Inhibition of human cathepsin K using Z-Lys-Gln-Lys-Leu-Arg-AMC as substrate after 1 hr by fluorescence assay; settings: read-out: Ki(app)
Cathepsin S [6] = molecular target: T2, Cathepsin S; experiment: Inhibition of human cathepsin S using Z-Lys-Gln-Lys-Leu-Arg-AMC as substrate after 1 hr by fluorescence assay; settings: read-out: Ki(app)
Procathepsin L [7] = molecular target: T1, Procathepsin L; experiment: Inhibition of human cathepsin L using Z-Phe-Arg-AMC as substrate after 1 hr by fluorescence assay; settings: read-out: Ki(app)

T2 sequence (P25774 whole entry): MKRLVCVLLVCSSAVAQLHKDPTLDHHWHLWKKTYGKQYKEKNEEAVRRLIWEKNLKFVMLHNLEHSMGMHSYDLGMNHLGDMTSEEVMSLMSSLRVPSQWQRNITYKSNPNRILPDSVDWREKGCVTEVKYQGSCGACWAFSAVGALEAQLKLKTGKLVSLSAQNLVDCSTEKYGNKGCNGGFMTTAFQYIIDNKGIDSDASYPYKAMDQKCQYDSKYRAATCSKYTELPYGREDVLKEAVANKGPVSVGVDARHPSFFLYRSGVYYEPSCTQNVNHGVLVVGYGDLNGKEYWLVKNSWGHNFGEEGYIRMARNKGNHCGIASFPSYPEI
T1 sequence (P07711 whole entry): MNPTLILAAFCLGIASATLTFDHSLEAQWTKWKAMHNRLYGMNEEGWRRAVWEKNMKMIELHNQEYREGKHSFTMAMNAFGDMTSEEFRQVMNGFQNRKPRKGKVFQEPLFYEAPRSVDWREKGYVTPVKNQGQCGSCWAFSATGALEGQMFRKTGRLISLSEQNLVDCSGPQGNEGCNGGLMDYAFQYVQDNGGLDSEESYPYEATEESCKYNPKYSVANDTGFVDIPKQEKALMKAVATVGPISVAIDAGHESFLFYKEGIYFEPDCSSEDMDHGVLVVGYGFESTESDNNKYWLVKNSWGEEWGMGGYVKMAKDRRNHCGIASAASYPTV

SMILES	IC50 (Procathepsin L [1]) [nM]	IC50 (Cathepsin S [2]) [nM]	IC50 (Cathepsin K [3]) [nM]	IC50 (Cathepsin S [4]) [nM]	Ki (Cathepsin K [5]) [nM]	Ki (Cathepsin S [6]) [nM]	Ki (Procathepsin L [7]) [nM]
C[C@@H]1CC[C@H](NC(=O)[C@H](CC2=CCCC2)NC(=O)c2ccco2)C(=O)CN1S(=O)(=O)c1ccccn1	3.8	4.9	9	–	–	–	–
CC(C)C[C@H](NC(=O)c1ccco1)C(=O)N[C@H]1CC[C@@H](C)N(S(=O)(=O)c2ccccn2)CC1=O	0.53	2.9	1	–	–	–	–
C[C@@H]1CC[C@H](NC(=O)[C@H](CC(C)(C)C)NC(=O)c2ccco2)C(=O)CN1S(=O)(=O)c1ccccn1	11.5	1.3	4.7	4800	–	–	–
C[C@@H]1CC[C@H](NC(=O)[C@@H](CC2(C)CCCC2)NC(=O)c2ccco2)C(=O)CN1S(=O)(=O)c1ccccn1	4400	101	1900	–	–	–	–
C[C@@H]1CC[C@H](NC(=O)[C@@H](CC2(C)CCCCC2)NC(=O)c2ccco2)C(=O)CN1S(=O)(=O)c1ccccn1	1700	37	2300	–	–	–	–
C[C@@H]1CC[C@H](NC(=O)[C@H](CCC2CCCC2)NC(=O)c2ccco2)C(=O)CN1S(=O)(=O)c1ccccn1	10.7	1.9	840	–	–	–	–
C[C@@H]1CC[C@H](NC(=O)[C@H](CC2CCC(C)(C)CC2)NC(=O)c2ccco2)C(=O)CN1S(=O)(=O)c1ccccn1	58.5	1.2	6200	–	–	–	–
C[C@@H]1CC[C@H](NC(=O)[C@H](CC23CCC(CC2)C3(C)C)NC(=O)N2CCOCC2)C(=O)CN1S(=O)(=O)c1ccccn1	139	1.5	174	–	–	–	–
C[C@@H]1CC[C@H](NC(=O)[C@H](CC2(C)CCCCC2)NC(=O)c2ccco2)C(=O)CN1C(=O)c1ccccn1	429	1.5	263	3880	–	–	–
CC(C)C[C@H](NC(=O)c1ccco1)C(=O)N[C@H]1CC[C@@H](C)N(C(=O)c2ccccn2)CC1=O	10	31.6	10	–	–	–	–
O=C(N[C@@H](Cc1ccc2ccccc2c1)C(=O)N[C@H]1CCCN(S(=O)(=O)c2ccccn2)CC1=O)c1cccc2ccccc12	–	–	–	–	> 10000	–	–
CC(C)C[C@H](NC(=O)c1cc2cc(OCCN3CCOCC3)ccc2o1)C(=O)N[C@H]1CCCN(C(=O)Cc2cccc(-c3ccccn3)c2)CC1=O	–	8.3	–	940	0.1	8.3	1.2

Continued, values first:

IC50 (Procathepsin L [1]) [nM]	IC50 (Cathepsin S [2]) [nM]	IC50 (Cathepsin K [3]) [nM]	IC50 (Cathepsin S [4]) [nM]	Ki (Cathepsin K [5]) [nM]	Ki (Cathepsin S [6]) [nM]	Ki (Procathepsin L [7]) [nM]	SMILES
4.8	0.76	27.7	–	–	–	–	C[C@@H]1CC[C@H](NC(=O)[C@H](CC2CCCC2)NC(=O)c2ccco2)C(=O)CN1S(=O)(=O)c1ccccn1
1.2	0.5	40.5	1780	–	–	–	C[C@@H]1CC[C@H](NC(=O)[C@H](CC2CCCCC2)NC(=O)c2ccco2)C(=O)CN1S(=O)(=O)c1ccccn1
< 0.4	< 0.4	28.2	–	–	–	–	C[C@@H]1CC[C@H](NC(=O)[C@H](CC2CCCCCC2)NC(=O)c2ccco2)C(=O)CN1S(=O)(=O)c1ccccn1
22.4	< 0.4	11.2	–	–	–	–	C[C@@H]1CC[C@H](NC(=O)[C@H](CC2(C)CCCC2)NC(=O)c2ccco2)C(=O)CN1S(=O)(=O)c1ccccn1
31.9	< 0.4	44.5	1400	–	–	–	C[C@@H]1CC[C@H](NC(=O)[C@H](CC2(C)CCCCC2)NC(=O)c2ccco2)C(=O)CN1S(=O)(=O)c1ccccn1
1	0.5	450	–	–	–	–	CC1CCC(C[C@H](NC(=O)c2ccco2)C(=O)N[C@H]2CC[C@@H](C)N(S(=O)(=O)c3ccccn3)CC2=O)CC1 (stereo not given in full)
10.8	0.58	1100	–	–	–	–	C[C@@H]1CC[C@H](NC(=O)[C@H](CCC2CCCC2)NC(=O)N2CCOCC2)C(=O)CN1S(=O)(=O)c1ccccn1
48.7	< 0.4	136	570	–	–	–	C[C@@H]1CC[C@H](NC(=O)[C@H](CC2(C)CCCCC2)NC(=O)N2CCOCC2)C(=O)CN1S(=O)(=O)c1ccccn1

Source: ChEMBL document CHEMBL1806418, “Azepanone-based inhibitors of human cathepsin S: optimization of selectivity via the P2 substituent” (Bioorg Med Chem Lett, 2011)
